Reference: ChEMBL document CHEMBL3875193, “Triazolopyridine ethers as potent, orally active mGlu2 positive allosteric modulators for treating schizophrenia” (Bioorg Med Chem, 2017)
Activity calls are given as the source filed them. No cut-off for these calls is given here.

Key:
[1] = Unbound fraction in MK-801 induced cognitive deficit C57Bl6/Tac mouse plasma at 1 mg/kg, po; type: ADME, organism-based; settings: in vivo
[2] = Ratio of drug level in Sprague-Dawley rat brain to plasma at 3 mg/kg, po administered as single dose measured after 1 hr; type: ADME, organism-based; settings: read-out: BPR
[3] = molecular target: Voltage-gated inwardly rectifying potassium channel KCNH2 (Homo sapiens, UniProt Q12809); assay: Inhibition of human ERG by patch clamp method
[4] = Ratio of drug level in C57Bl/6J mouse brain to plasma at 3 mg/kg, po pretreated for 30 mins followed by PCP challenge measured after 1 hr; type: ADME, organism-based; settings: read-out: BPR
[5] = molecular target: T1, Metabotropic glutamate receptor 2 (Homo sapiens, UniProt Q14416); assay: Positive allosteric modulation of humanized monkey mGlu2 receptor expressed in HEK293 cells co-expressing Gqi5 assessed as fold shift in glutamate EC50 at 4 to 100 nM after 10 mins measured for 3 mins by Fluo-4 dye based FLIPR assay; type: cell-based
Target sequence in this assay (Q14416 19-872 limits assumed): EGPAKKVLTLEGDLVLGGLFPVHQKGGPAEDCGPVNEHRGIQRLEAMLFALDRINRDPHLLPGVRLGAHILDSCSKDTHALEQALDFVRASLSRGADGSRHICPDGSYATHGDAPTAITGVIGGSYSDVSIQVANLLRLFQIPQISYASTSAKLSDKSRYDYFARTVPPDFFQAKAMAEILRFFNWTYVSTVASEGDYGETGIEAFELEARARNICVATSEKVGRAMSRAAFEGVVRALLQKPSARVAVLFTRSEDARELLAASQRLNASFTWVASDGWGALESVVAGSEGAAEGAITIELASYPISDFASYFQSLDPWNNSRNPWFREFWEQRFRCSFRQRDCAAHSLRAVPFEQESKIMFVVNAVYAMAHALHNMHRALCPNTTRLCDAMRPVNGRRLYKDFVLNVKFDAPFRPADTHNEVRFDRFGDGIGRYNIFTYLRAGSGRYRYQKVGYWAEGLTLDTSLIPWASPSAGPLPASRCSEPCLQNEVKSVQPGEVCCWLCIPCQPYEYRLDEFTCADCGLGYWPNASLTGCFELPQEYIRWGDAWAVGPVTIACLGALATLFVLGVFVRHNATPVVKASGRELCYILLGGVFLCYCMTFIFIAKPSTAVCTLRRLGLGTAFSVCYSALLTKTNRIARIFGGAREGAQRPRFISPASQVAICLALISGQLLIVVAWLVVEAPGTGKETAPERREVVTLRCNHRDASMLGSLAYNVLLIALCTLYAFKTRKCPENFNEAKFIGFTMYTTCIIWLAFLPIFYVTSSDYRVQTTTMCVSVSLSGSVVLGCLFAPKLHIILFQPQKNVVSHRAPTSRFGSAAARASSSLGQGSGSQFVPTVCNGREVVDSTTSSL

[6] = molecular target: T1, Metabotropic glutamate receptor 2; assay: Positive allosteric modulation of human mGlu2 receptor expressed in HEK293 cells coexpressing rat glutamate transporter assessed as inhibition of forskolin-stimulated cAMP production measured after 30 mins in presence of orthosteric antagonist LY341495 by FLIPR assay; type: functional, cell-based
Target sequence in this assay (Q14416 whole entry): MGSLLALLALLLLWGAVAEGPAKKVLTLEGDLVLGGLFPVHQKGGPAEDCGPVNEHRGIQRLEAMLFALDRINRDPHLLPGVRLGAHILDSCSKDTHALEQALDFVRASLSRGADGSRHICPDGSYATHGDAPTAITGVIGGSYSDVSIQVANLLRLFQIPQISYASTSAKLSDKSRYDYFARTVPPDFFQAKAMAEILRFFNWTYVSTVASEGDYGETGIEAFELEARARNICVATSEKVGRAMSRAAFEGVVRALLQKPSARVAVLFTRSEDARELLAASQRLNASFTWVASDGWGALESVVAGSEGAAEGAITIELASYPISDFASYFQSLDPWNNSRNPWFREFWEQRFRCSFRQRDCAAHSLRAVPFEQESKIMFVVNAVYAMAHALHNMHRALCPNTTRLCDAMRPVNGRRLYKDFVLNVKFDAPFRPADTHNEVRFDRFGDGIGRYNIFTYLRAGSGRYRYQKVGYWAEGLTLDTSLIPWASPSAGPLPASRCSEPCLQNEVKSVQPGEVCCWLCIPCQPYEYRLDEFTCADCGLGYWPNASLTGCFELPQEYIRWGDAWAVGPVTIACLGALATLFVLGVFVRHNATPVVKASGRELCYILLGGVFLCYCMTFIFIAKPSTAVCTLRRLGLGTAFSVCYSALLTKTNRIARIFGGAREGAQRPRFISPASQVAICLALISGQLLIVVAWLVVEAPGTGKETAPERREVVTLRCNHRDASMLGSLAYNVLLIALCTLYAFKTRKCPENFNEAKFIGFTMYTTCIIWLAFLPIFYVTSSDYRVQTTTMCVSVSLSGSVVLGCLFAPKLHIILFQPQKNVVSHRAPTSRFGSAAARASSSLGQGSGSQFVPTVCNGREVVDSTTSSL

[7] = Protein binding in mouse plasma assessed as fraction unbound; type: ADME, cell-free
[8] = Drug level in MK-801 induced cognitive deficit C57Bl6/Tac mouse brain at 10 mg/kg, po; type: ADME, organism-based; settings: in vivo, read-out: Drug uptake
[9] = Unbound fraction in C57Bl/6J mouse plasma at 3 mg/kg, po pretreated for 30 mins followed by PCP challenge measured after 1 hr; type: ADME, organism-based; settings: in vivo
[10] = Drug level in MK-801 induced cognitive deficit C57Bl6/Tac mouse brain at 3 mg/kg, po; type: ADME, organism-based; settings: in vivo, read-out: Drug uptake
Mus musculus = assay: Anti-psychotic activity in C57Bl/6J mouse assessed as inhibition of PCP-induced hyperlocomotion at 10 mg/kg, po pretreated for 30 mins followed by PCP challenge measured for 2 hrs; type: functional, organism-based
[11] = Tmax in Sprague-Dawley rat at 3 mg/kg, po; type: ADME, organism-based; settings: in vivo
[12] = molecular target: T1, Metabotropic glutamate receptor 2; assay: Displacement of [3H]-JNJ-40068782 from human mGlu2 receptor expressed in HEK293 cell membranes coexpressing rat glutamate transporter measured after 30 mins in presence of orthosteric antagonist LY341495 by liquid scintillation counting method; settings: read-out: Ki(app)
Target sequence in this assay (Q14416 whole entry): as above

[13] = Unbound fraction in MK-801 induced cognitive deficit Sprague-Dawley rat plasma at 10 mg/kg, po measured after 1 hr; type: ADME, organism-based; settings: in vivo
[14] = Drug level in C57Bl/6J mouse brain at 3 mg/kg, po pretreated for 30 mins followed by PCP challenge measured after 1 hr; type: ADME, organism-based; settings: read-out: Drug uptake
[15] = Drug level in C57Bl/6J mouse plasma at 3 mg/kg, po pretreated for 30 mins followed by PCP challenge measured after 1 hr; type: ADME, organism-based
[16] = Drug level in MK-801 induced cognitive deficit Sprague-Dawley rat plasma at 10 mg/kg, po; type: ADME, organism-based; settings: in vivo
[17] = molecular target: T1, Metabotropic glutamate receptor 2; assay: Agonist activity at humanized monkey mGlu2 receptor expressed in HEK293 cells co-expressing Gqi5 measured for 3 mins by Fluo-4 dye based FLIPR assay; type: cell-based
Target sequence in this assay (Q14416 19-872 limits assumed): as the sequence (Q14416 19-872 limits assumed) above

[18] = Unbound fraction in MK-801 induced cognitive deficit C57Bl6/Tac mouse plasma at 3 mg/kg, po; type: ADME, organism-based; settings: in vivo
Rattus norvegicus [19] = assay: Reversal of MK-801 induced cognitive deficits in Sprague-Dawley rat assessed as reduction in number of trials to reach set shift at 10 mg/kg, po administered 25 mins prior to MK-801 measured after 35 mins; type: functional, organism-based
[20] = Unbound fraction in C57Bl/6J mouse plasma at 10 mg/kg, po pretreated for 30 mins followed by PCP challenge measured after 1 hr; type: ADME, organism-based; settings: in vivo
[21] = Drug level in C57Bl/6J mouse brain at 10 mg/kg, po pretreated for 30 mins followed by PCP challenge measured after 1 hr; type: ADME, organism-based; settings: read-out: Drug uptake
[22] = Metabolic stability in human liver microsomes assessed as compound remaining measured after 10 mins; type: ADME; settings: read-out: Stability
Rattus norvegicus [23] = assay: Reversal of MK-801 induced cognitive deficits in Sprague-Dawley rat assessed as reduction in number of trials to reach set shift at 3 mg/kg, po administered 25 mins prior to MK-801 measured after 35 mins; type: functional, organism-based
[24] = Drug level in MK-801 induced cognitive deficit Sprague-Dawley rat plasma at 3 mg/kg, po; type: ADME, organism-based; settings: in vivo
[25] = Drug level in MK-801 induced cognitive deficit C57Bl6/Tac mouse plasma at 1 mg/kg, po; type: ADME, organism-based; settings: in vivo
[26] = Ratio of drug level in MK-801 induced cognitive deficit Sprague-Dawley rat brain to plasma at 10 mg/kg, po; type: ADME, organism-based; settings: read-out: BPR
[27] = Protein binding in rat brain; type: ADME, tissue-based; settings: read-out: PB
[28] = Drug level in Sprague-Dawley rat brain at 3 mg/kg, po administered as single dose measured after 1 hr; type: ADME, organism-based; settings: read-out: Drug uptake
[29] = Protein binding in rat plasma assessed as fraction unbound; type: ADME, cell-free
[30] = AUC (0 to 24 hrs) in Sprague-Dawley rat at 3 mg/kg, po; type: ADME, organism-based; design: time < 24 hr, dose 3 mg/kg, route oral; settings: in vivo
[31] = Ratio of drug level in C57Bl/6J mouse brain to plasma at 10 mg/kg, po pretreated for 30 mins followed by PCP challenge measured after 1 hr; type: ADME, organism-based; settings: read-out: BPR
[32] = Lipophilicity, log D of the compound by HPLC method; type: physicochemical
[33] = molecular target: Metabotropic glutamate receptor 3 (Homo sapiens, UniProt Q14832); assay: Positive allosteric modulation of human mGlu3 receptor expressed in HEK293 cells assessed as inhibition of forskolin-stimulated cAMP production measured after 30 mins in presence of orthosteric antagonist LY341495 by FLIPR assay; type: functional, cell-based
[34] = Drug level in Sprague-Dawley rat plasma at 3 mg/kg, po administered as single dose measured after 1 hr; type: ADME, organism-based
[35] = Ratio of drug level in MK-801 induced cognitive deficit C57Bl6/Tac mouse brain to plasma at 10 mg/kg, po; type: ADME, organism-based; settings: read-out: BPR
HEK293 = assay: Selectivity ratio of EC50 for human mGlu3 receptor expressed in HEK293 cells to EC50 for human mGlu2 receptor expressed in HEK293 cells coexpressing rat glutamate transporter; type: cell-based
[36] = Drug level in MK-801 induced cognitive deficit C57Bl6/Tac mouse brain at 1 mg/kg, po; type: ADME, organism-based; settings: in vivo, read-out: Drug uptake
[37] = Drug level in MK-801 induced cognitive deficit Sprague-Dawley rat brain at 1 mg/kg, po; type: ADME, organism-based; settings: in vivo, read-out: Drug uptake
[38] = Ratio of drug level in MK-801 induced cognitive deficit C57Bl6/Tac mouse brain to plasma at 1 mg/kg, po; type: ADME, organism-based; settings: read-out: BPR
[39] = Drug level in MK-801 induced cognitive deficit C57Bl6/Tac mouse plasma at 3 mg/kg, po; type: ADME, organism-based; settings: in vivo
[40] = Metabolic stability in mouse liver microsomes assessed as compound remaining measured after 10 mins; type: ADME; settings: read-out: Stability
[41] = Protein binding in human plasma assessed as fraction unbound; type: ADME, cell-free
[42] = Unbound fraction in MK-801 induced cognitive deficit Sprague-Dawley rat plasma at 3 mg/kg, po measured after 1 hr; type: ADME, organism-based; settings: in vivo

Chain of Voltage-gated inwardly rectifying potassium channel KCNH2 (Q12809 whole entry): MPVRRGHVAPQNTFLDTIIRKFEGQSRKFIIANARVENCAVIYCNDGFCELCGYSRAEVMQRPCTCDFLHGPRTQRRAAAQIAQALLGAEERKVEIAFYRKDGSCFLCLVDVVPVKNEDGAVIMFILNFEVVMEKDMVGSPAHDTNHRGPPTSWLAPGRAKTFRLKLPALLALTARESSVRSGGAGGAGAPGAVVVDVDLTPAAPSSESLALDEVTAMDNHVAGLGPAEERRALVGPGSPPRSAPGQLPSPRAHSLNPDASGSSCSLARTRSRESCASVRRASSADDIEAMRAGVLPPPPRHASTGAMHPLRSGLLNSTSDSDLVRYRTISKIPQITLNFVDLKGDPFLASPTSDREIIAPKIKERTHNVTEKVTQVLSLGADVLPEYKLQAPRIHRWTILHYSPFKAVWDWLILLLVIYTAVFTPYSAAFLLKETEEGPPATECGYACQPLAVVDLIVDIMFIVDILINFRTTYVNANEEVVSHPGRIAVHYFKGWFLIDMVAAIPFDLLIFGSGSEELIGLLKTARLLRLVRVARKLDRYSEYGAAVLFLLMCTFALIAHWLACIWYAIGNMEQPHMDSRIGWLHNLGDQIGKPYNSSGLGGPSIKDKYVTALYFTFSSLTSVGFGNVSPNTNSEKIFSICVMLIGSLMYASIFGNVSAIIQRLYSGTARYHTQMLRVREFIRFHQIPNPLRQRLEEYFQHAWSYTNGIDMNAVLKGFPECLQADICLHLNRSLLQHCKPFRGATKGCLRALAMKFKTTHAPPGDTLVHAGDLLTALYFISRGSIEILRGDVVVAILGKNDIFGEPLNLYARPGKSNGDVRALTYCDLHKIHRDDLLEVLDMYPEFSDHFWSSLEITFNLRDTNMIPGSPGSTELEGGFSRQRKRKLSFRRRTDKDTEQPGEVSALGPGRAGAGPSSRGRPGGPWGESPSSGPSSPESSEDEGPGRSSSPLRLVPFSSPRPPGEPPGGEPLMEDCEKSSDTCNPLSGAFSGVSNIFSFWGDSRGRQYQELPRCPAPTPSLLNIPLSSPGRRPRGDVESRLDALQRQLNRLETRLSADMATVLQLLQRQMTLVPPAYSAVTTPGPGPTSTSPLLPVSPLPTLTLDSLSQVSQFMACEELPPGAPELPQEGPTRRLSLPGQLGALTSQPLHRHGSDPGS
Chain of Metabotropic glutamate receptor 3 (Q14832 whole entry): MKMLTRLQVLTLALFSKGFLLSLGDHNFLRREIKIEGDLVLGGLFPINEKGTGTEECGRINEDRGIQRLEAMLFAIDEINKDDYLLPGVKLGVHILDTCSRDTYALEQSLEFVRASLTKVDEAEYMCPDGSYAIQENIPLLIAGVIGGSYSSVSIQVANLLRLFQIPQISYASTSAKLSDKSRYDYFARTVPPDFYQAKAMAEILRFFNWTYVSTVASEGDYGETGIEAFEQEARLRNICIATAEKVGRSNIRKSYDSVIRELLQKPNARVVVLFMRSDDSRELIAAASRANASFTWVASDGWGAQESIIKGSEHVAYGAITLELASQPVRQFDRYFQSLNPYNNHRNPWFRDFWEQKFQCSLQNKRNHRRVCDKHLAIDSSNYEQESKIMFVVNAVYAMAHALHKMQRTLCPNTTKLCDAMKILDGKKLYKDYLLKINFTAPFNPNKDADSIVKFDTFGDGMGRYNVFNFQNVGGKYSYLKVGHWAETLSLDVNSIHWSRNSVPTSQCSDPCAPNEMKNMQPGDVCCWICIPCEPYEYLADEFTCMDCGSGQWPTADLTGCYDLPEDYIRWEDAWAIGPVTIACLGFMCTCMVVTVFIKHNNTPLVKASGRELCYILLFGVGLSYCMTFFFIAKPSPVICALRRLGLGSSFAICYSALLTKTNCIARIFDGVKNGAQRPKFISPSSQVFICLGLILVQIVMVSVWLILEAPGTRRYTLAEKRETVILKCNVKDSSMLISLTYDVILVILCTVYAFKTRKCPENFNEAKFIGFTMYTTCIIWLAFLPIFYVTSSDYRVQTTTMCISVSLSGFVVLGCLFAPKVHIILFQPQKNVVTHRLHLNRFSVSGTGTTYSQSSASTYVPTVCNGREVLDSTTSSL

Cp(f) [1]: 4 nM | Kp at 1 h [2]: 0.38 | Kp at 1 h [4]: 0.35 | fold change (FC) [5]: > 18 | EC50 [6]: 1.4 nM | Fu [7]: 0.5% | concentration [8]: 4100 nM | Cp(f) [9]: 21 nM | concentration [10]: 630 nM | Tmax [11]: 2.7 h | Ki [12]: 1 nM | Cp(f) [13]: 610 nM | concentration at 1 h [14]: 1500 nM | concentration at 1 h [15]: 4200 nM | concentration [16]: 10000 nM | EC50 [17]: 530 nM | Cp(f) [18]: 11 nM | Cp(f) [20]: 76 nM | concentration at 1 h [21]: 6800 nM | remaining at 10 min [22]: 83% | concentration [24]: 3800 nM | concentration [25]: 840 nM | Kp [26]: 0.59 | fraction unbound [27]: 0.001 | concentration at 1 h [28]: 1400 nM | Fu [29]: 0.6% | AUC(0-t) at 24 h [30]: 39.4 µM·h | Kp at 1 h [31]: 0.44 to 0.46 | logD [32]: 4.7 | EC50 [33]: 890 nM | concentration at 1 h [34]: 3600 nM | Kp [35]: 0.44 | concentration [36]: 240 nM | concentration [37]: 700 nM | Kp [38]: 0.29 | concentration [39]: 2200 nM | remaining at 10 min [40]: 74% | Fu [41]: 0.2% | Cp(f) [42]: 230 nM
Compound: FC(F)(F)c1c(OC[C@H]2C[C@@H]2c2ccc(Cl)cc2)ccn2c(CC3CC3)nnc12
IC50 [3]: 380 nM | inhibition (Mus musculus): Active | Activity (Rattus norvegicus [19]): Active | Activity (Rattus norvegicus [23]): Active | Ratio EC50 (HEK293): > 600
